# Test results: publication PMC8156151 (The European Respiratory Journal, 2021)
# Columns and labels:
# Assay type in all cases: in vivo, human
# [1] = test system: patients with IPF; experiment: Safety and tolerability (TEAEs), part 2, once-daily inhaled dose for 14 days
# Description: Following completion of dosing for the final subject in each dosing cohort, an interim dose review meeting was held with a safety committee consisting of the principal investigator, medical monitor, pharmacokineticist and statistician to review the safety, tolerability and PK data (study design schematic shown in figure 1). The study statistician and pharmacokineticist were unblinded at the end of each cohort in order to conduct the analyses required for dose review decisions. The primary end-point was the safety and tolerability of single or multiple doses of TD139 in healthy subjects or IPF patients, respectively.
# [2] = TD139 concentration in BAL alveolar macrophages, ELF and plasma
# Protocol: Full plasma PK profiles were conducted on days 1 (first day of dosing) and 14 (last day of dosing). […] Standard noncompartmental methods were applied to derive PK parameters using Phoenix WinNonlin version 6.3 (Certara, Sheffield, UK). […] Drug compartment measurements in BAL alveolar macrophages and fluid were determined as described previously.
# [3] = test system: BAL cells; experiment: BAL cell classification and quantification (flow cytometry); conditions: any dose groups
# Protocol: Dickinson, NJ, USA). Data were analysed using FlowJo software (Becton Dickinson, NJ, […]
# identify cell populations based on surface marker expression. The antibodies used were Gal-3- […]
# Biolegend except Gal-3-FITC which was from Cedarlane. Macrophages were identified as having high side scatter properties and HLA-DR positivity. Gal-3 expression (mean fluorescence intensity, MFI) was determined from the macrophage gate. Macrophage subsets […]
# Plasma pharmacodynamic biomarkers
# Secreted], CCL18 [pulmonary and activation-regulated chemokine], CCL26 [eotaxin], […]
# A disease relevance score was
# (supplementary table S2).
# BAL cell classification and quantification
# CD163 and CD206 expression (supplemental figure S2). […]
# following treatment with TD139 in the high dose group.
# [4] = test system: MMP-8; experiment: Plasma biomarker MMP-8; conditions: for MMP-8 raw data, Mean (SD) / MMP-8 least square means % baseline±SEM: IPF patients
# Protocol: (§1) All patients, investigators, sites and study sponsor personnel were blinded to the study group assignments throughout the study. Patients underwent study-specific assessments on days 2, 3, 7, 14 and 15, and a post-study assessment was carried out 26–30 days after the last day of the study period. Assessments included vital signs (supine blood pressure, pulse, oxygen saturation, oral temperature and respiratory rate), spirometry, 12-lead ECG, physical examination, laboratory safety screen (haematology, biochemistry, urinalysis and urinary drugs of abuse screen) and blood sampling for PK measurements. All adverse events and concomitant medications were recorded from the time of the screening visit until the post-study follow-up visit. BAL was performed at day −1 (24 h before the first dose) and at day 14 (2 h after the last dose). The BAL procedure was performed as per international guidelines. Briefly, 240 mL of 0.9% saline at room temperature was instilled in 40 mL aliquots into the right middle lobe and aspirated by suction after each aliquot.
# (§2) BAL cells were separated from fluid by centrifugation, and cells were collected, stained with antibodies (supplementary material) and then fixed before analysis using a LSR Fortessa flow cytometer (Becton Dickinson, Franklin Lakes, NJ, USA). Data were analysed using FlowJo software (Tree Star, Ashland, OR, USA). Macrophages were identified as having high side scatter properties and human leukocyte antigen-DR positivity. Gal-3 expression (mean fluorescence intensity) was determined from the macrophage gate (supplementary figures S1 and S2). […] Samples were analysed by magnetic Luminex assay (R&D Systems, Minneapolis, MN, USA) or ELISA.
# (§3) For part 2 of the study, placebos were combined from the three dose-specific cohorts into a pooled control group (n=9). For alveolar macrophage Gal-3 expression and the plasma biomarkers, ANCOVA was performed for percentage of baseline ((day 14/day 1)×100). The ANCOVA model included effects for treatment group and baseline (day 1) value. […] An additional analysis including dose as a continuous covariate was also performed. The Pearson correlation coefficient (r) and associated p-value were calculated for percentage of baseline and day 14 values between plasma biomarkers and alveolar macrophage Gal-3 expression. […] The analysis is exploratory and there was no pre-planned adjustment for multiple testing; the study was not powered for this. Alveolar macrophage Gal-3 expression was considered the primary exploratory analysis with the pre-selected biomarkers secondary. A Bonferroni correction for multiple testing of the secondary end-points comparing the 10 mg group with placebo gives a critical value of 0.0063. Data are presented as the difference in least square means with 95% confidence interval and p-value unless otherwise stated. All analyses were performed using SAS version 9.4 (SAS Institute, Cary, NC, USA). […]
# [5] = test system: IL-1ra; experiment: Plasma biomarker IL-1ra; conditions: for IL-1ra raw data, Mean (SD) / IL-1ra least square means % baseline±SEM: IPF patients
# Protocol: as §1, §2, §3
# [6] = IPF patients, inhaled 0.3 mg once daily 14 days
# [7] = IPF patients, inhaled 3 mg once daily 14 days
# [8] = IPF patients, inhaled 10 mg once daily 14 days
smiles,measurement,setting,value
OC[C@H]1O[C@@H](S[C@@H]2O[C@H](CO)[C@H](O)[C@H](n3cc(-c4cccc(F)c4)nn3)[C@H]2O)[C@H](O)[C@@H](n2cc(-c3cccc(F)c3)nn2)[C@H]1O [TD139],Subjects reporting ≥1 TEAE: Serious TEAE,[1]; [6],0 n (%)
same,Subjects reporting ≥1 TEAE: TEAE,[1]; [6],4 (80.0) n (%)
same,Subjects reporting ≥1 TEAE: TEAE leading to withdrawal,[1]; [6],0 n (%)
same,Subjects with TEAE by relationship to study IMP: Almost definite,[1]; [6],0 n (%)
same,Subjects with TEAE by relationship to study IMP: Possible,[1]; [6],1 (20.0) n (%)
same,Subjects with TEAE by relationship to study IMP: Probable,[1]; [6],0 n (%)
same,Subjects with TEAE by relationship to study IMP: Unlikely,[1]; [6],1 (20.0) n (%)
same,Subjects with TEAE by relationship to study IMP: Unrelated,[1]; [6],2 (40.0) n (%)
same,Subjects with TEAE by severity: Mild,[1]; [6],2 (40.0) n (%)
same,Subjects with TEAE by severity: Moderate,[1]; [6],2 (40.0) n (%)
same,Subjects with TEAE by severity: Severe,[1]; [6],0 n (%)
same,TEAEs,[1]; [6],9 n
same,Subjects reporting ≥1 TEAE: Serious TEAE,[1]; [7],0 n (%)
same,Subjects reporting ≥1 TEAE: TEAE,[1]; [7],5 (100.0) n (%)
same,Subjects reporting ≥1 TEAE: TEAE leading to withdrawal,[1]; [7],0 n (%)
same,Subjects with TEAE by relationship to study IMP: Almost definite,[1]; [7],0 n (%)
same,Subjects with TEAE by relationship to study IMP: Possible,[1]; [7],1 (20.0) n (%)
same,Subjects with TEAE by relationship to study IMP: Probable,[1]; [7],0 n (%)
same,Subjects with TEAE by relationship to study IMP: Unlikely,[1]; [7],1 (20.0) n (%)
same,Subjects with TEAE by relationship to study IMP: Unrelated,[1]; [7],3 (60.0) n (%)
same,Subjects with TEAE by severity: Mild,[1]; [7],4 (80.0) n (%)
same,Subjects with TEAE by severity: Moderate,[1]; [7],1 (20.0) n (%)
same,Subjects with TEAE by severity: Severe,[1]; [7],0 n (%)
same,TEAEs,[1]; [7],10 n
same,Subjects reporting ≥1 TEAE: Serious TEAE,[1]; [8],1 (20.0) n (%)
same,Subjects reporting ≥1 TEAE: TEAE,[1]; [8],4 (80.0) n (%)
same,Subjects reporting ≥1 TEAE: TEAE leading to withdrawal,[1]; [8],0 n (%)
same,Subjects with TEAE by relationship to study IMP: Almost definite,[1]; [8],0 n (%)
same,Subjects with TEAE by relationship to study IMP: Possible,[1]; [8],0 n (%)
same,Subjects with TEAE by relationship to study IMP: Probable,[1]; [8],0 n (%)
same,Subjects with TEAE by relationship to study IMP: Unlikely,[1]; [8],2 (40.0) n (%)
same,Subjects with TEAE by relationship to study IMP: Unrelated,[1]; [8],2 (40.0) n (%)
same,Subjects with TEAE by severity: Mild,[1]; [8],1 (20.0) n (%)
same,Subjects with TEAE by severity: Moderate,[1]; [8],2 (40.0) n (%)
same,Subjects with TEAE by severity: Severe,[1]; [8],1 (20.0) n (%)
same,TEAEs,[1]; [8],13 n
same,safety and tolerability,"[1]; IPF patients, multiple inhaled doses up to 10 mg",safe and well tolerated
same,"TEAE profile, biochemistry, haematology, vital signs or 12-lead ECG data","[1]; part 2, IPF patients",no treatment- or dose-related trends observed
same,patients with a TEAE considered possibly related to the study drug,"[1]; part 2, diarrhoea and dysgeusia/oropharyngeal pain",two
same,correlation between concentrations of TD139 in ELF and AMs (r),"[2]; all active cohorts, day 14",0.89 (95% CI 0.70–0.96)
same,correlation between concentrations of TD139 in plasma (total) and AMs (r),"[2]; all active cohorts, day 14",0.89 (95% CI 0.65–0.96)
same,Kp at 2 h,"[2]; human, inhaled, concentration of TD139 in BAL macrophages (lung) relative to systemic exposure (blood), IPF patients, 2 h post-dosing on day 14",> 567
same,"abundance or frequencies of CD4+ or CD8+ T cells, Tregs, NK, NKT, B cells, neutrophils or monocytes in BAL",[3],no change in the abundance or frequencies
same,MMP-8 difference in least square means % baseline (95% CI),"[4]; 10 mg vs placebo, ANCOVA",−125.4 (−271.3–20.5) % baseline
same,"MMP-8 raw data, Mean (SD)","[4]; Day 14, 0.3 mg",1911.5 (1577.82) pg/ml
same,"MMP-8 raw data, Mean (SD)","[4]; Day 14, 3 mg",2263.3 (2428.78) pg/ml
same,"MMP-8 raw data, Mean (SD)","[4]; Day 14, 10 mg",44436.7 (97465.67) pg/ml
same,MMP-8 least square means % baseline±SEM,"[4]; day 14, 0.3 mg once daily",138.0±52.8 % baseline
same,MMP-8 least square means % baseline±SEM,"[4]; day 14, 3 mg once daily",115.2±52.7 % baseline
same,MMP-8 least square means % baseline±SEM,"[4]; day 14, 10 mg once daily",51.5±56.1 % baseline
same,IL-1ra difference in least square means % baseline (95% CI),"[5]; 10 mg vs placebo, ANCOVA",6.0 (−47.5–59.4) % baseline
same,"IL-1ra raw data, Mean (SD)","[5]; Day 14, 0.3 mg",548.3 (279.69) pg/ml
same,"IL-1ra raw data, Mean (SD)","[5]; Day 14, 3 mg",709.8 (338.05) pg/ml
same,"IL-1ra raw data, Mean (SD)","[5]; Day 14, 10 mg",1992.9 (2627.15) pg/ml
same,IL-1ra least square means % baseline±SEM,"[5]; day 14, 0.3 mg once daily",93.2±20.3 % baseline
same,IL-1ra least square means % baseline±SEM,"[5]; day 14, 3 mg once daily",98.7±20.2 % baseline
same,IL-1ra least square means % baseline±SEM,"[5]; day 14, 10 mg once daily",98.0±20.8 % baseline
